In patent US10130611B2, “Use of benzo-heterocycle derivatives for preventing and treating cancer or for inhibiting cancer metastasis” (MEDICINAL BIOCONVERGENCE RESEARCH CENTER, priority 2009, dated 2018):

Experiments:
[1] = biological target: T1, intracellular interaction between KRS and 67LR (Homo sapiens, UniProt Q15046); assay: Co-immunoprecipitation of KRS with 67LR in cells treated with KL1; assay type: cell-based
T1 construct: endogenous in cells
Procedure: (§1) As a control, an OD level of cells treated with DMSO was measured. FIG. 32 is a photograph showing cell growth in wells containing yeast cells having indicated interaction pairs in the presence or absence of CAND-KL1. In FIG. 33, in 293 cells, through co-immunoprecipitation, the KL1-dose-dependent effect on the interaction between KRS and 67LR was tested. The cells were treated with KL1 for 3 hours, 67LR was immunoprecipitated, and co-precipitation of KRS was determined by western blotting. In FIG. 34, in the presence of KL1 in indicated levels, a laminin receptor labeled with radioisotope was mixed with GST-KRS (1 μg). GST-KRS was precipitated with glutathione-Sepharose beads, and co-precipitated laminin receptor was detected with autoradiography. In FIG. 35, in A549 cells, the effect of KL1 on the intracellular level of 67LR and 37LRP was tested with western blotting. […] GST-KRS was immobilized on a CM5 Sensor Chip, and the binding was measured by a resonance unit (RU) at indicated concentrations (indicated by different colors). […]
(§2) From among the compounds, the inventors also examined whether the compound represented by Formula 15 (indicated by CAND-KL1, and KL1) can inhibit the intracellular interaction between KRS and 67LR. […] Then, 67LR was immunoprecipitated with its antibody, and co-immunoprecipitation of KRS was determined. […]

[2] = biological target: T2, interaction between laminin receptor and GST-KRS (Homo sapiens, UniProt Q15046); assay: In vitro pull-down of radiolabelled laminin receptor with GST-KRS; assay type: binding; conditions: KL1 in different amounts; GST-KRS 1 μg; autoradiography
T2 construct: made in house; host or cells: GST-KRS: E. coli Rosetta (DE3); 37LRP: TNT Quick coupled Transcription/Translation system (Promega) from pcDNA3-37LRP
Procedure: as §1, §2

[3] = biological target: T3, interaction between KRS and laminin receptor (67LR) (Homo sapiens, UniProt Q15046); assay: Yeast two hybrid growth assay, LexA-KRS/B42-LR pair; assay type: cell-based
T3 construct: expressed in transfected cells; host or cells: yeast EGY/SH cells
Procedure: On the compound of the present invention obtained by screening a library of compounds, the extent of inhibition on the interaction between KRS and laminin receptor (67LR) was determined by a yeast two hybrid assay, as described below. KRS, LR, AIMP2, AIMP3 and MRS were cloned at LexA vector (clontech) and B42 vector (clontech) each so as to produce required vectors. From among the vectors, LexA-KRS vector and B42-LR vector were co-transformed into yeast EGY/SH cells, and then the yeast cells were diluted to an absorbance (540 nm wavelength) of 0.2 in galactose medium not containing uracil (Ura), histidine (His), tryptophane (Trp) and leucine (Leu), and placed in an amount of 200 u in a 96 well plate. 1 μl of each compound at a concentration of 10 mg/ml was placed in each well, incubated for 6 days, and the absorbance was measured at 540 nm. […] The inhibitory specificity of the selected compound was tested by using two different interaction pairs such as LexA-KRS/B42-AIMP2 and LexA-MRS/B42-AIMP3.
In order to determine if the compound of the present invention controls the interaction between KRS and laminin receptor, the present inventors determined the interaction between KRS and 67LR through treatment of the compound of the present invention.

T1 sequence (Q15046 2-597 limits assumed): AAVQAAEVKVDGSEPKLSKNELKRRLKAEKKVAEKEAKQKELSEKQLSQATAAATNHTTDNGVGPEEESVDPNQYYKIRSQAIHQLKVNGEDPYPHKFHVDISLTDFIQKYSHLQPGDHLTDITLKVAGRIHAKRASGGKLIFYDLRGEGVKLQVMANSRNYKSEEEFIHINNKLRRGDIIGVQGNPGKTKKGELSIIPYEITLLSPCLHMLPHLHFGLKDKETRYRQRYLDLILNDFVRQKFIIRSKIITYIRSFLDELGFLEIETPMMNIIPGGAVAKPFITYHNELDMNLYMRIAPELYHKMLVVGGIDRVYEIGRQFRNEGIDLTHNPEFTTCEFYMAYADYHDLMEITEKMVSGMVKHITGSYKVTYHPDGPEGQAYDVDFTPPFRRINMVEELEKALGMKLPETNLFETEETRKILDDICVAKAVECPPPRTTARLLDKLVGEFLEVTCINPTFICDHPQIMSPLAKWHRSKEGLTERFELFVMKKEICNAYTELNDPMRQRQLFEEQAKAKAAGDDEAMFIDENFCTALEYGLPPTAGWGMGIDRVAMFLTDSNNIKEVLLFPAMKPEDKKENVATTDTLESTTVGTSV
T3 sequence (Q15046 whole entry): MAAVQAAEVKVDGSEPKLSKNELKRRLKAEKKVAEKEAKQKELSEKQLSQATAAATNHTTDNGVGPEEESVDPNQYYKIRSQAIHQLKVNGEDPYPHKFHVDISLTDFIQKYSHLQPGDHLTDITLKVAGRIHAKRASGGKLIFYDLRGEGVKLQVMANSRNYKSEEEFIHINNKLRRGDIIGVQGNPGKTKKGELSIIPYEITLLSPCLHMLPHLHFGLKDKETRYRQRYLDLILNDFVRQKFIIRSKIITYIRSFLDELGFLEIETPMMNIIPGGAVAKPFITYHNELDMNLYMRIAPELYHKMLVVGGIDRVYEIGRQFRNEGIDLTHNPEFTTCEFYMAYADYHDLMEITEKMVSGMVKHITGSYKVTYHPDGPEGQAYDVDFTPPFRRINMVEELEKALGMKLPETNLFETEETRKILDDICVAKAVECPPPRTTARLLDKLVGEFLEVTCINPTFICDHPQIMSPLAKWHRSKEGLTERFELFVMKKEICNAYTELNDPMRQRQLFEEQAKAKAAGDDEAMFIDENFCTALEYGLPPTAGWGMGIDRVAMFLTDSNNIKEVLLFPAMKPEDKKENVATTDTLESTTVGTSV
T2 sequence (Q15046 whole entry): as above

Structure (SMILES): CCC(C(=O)O)n1/c(=N/C(=O)c2ccc(C)cc2)sc2ccccc21 (centres unmarked) [Compound of formula 15, 2-[2-(4-Methyl-benzoylimino)-benzothiazol-3-yl]-butyric acid]
- level of KRS co-precipitated with 67LR ([1]; cells treated with KL1 at different concentrations, 3 hours, 67LR immunoprecipitated): decreased according the increase of KL1 level
- intracellular levels of KRS and 67LR ([1]; same co-immunoprecipitation experiment (FIG. 33)): not changed
- level of laminin receptor pulled down with GST-KRS [2]: decreased according to an increase of the added KL1 compound
- inhibition at 10000 µg/mL (stock) ([3]; growth inhibition of yeast EGY/SH cells with LexA-KRS/B42-LR vs control, 1 μl of 10 mg/ml compound per well, 6 days, absorbance 540 nm, read-out: Inhibition rate(%)): 52.1%
- KRS-67LR (yeast growth, OD level) ([3]; yeast two hybrid pair KRS-67LR, compound at 50 μg/ml, DMSO control 0.4241): 0.2223
